Usually EC50 stands for the concentration needed to bring the measured effect to its halfway point. A lower EC50 goes with a more potent agent.

The test system of one assay is Nippostrongylus brasiliensis. Nature of the assay: Anthelmintic activity against Nippostrongylus brasiliensis. It counts as functional, organism-based.
Conditions: not given
`C=C1C[C@@H](O)[C@@H](Br)C(C)(C)[C@@]12C=C/C(=C/Br)CC2` had an Activity of less than 100 µM. The same measure, in the same setting: to `C=C1C[C@@H](O)[C@@H](Br)C(C)(C)[C@@]12C=CC(=O)CC2` belongs less than 100 µM; to `C=C1C[C@@H](O)[C@@H](Br)C(C)(C)[C@@]12C=C/C(=C\Br)CC2`, less than 100 µM; to `CCCCCCCCCCCCCC/C=C(/C=O)CCCCCCCCCCCCC`, less than 100 µM. In turn, `C=C1C[C@@H](O)[C@H](Br)C(C)(C)[C@]12CC=C(C)CC2` registered an Activity of less than 100 µM. `CC1=CC(=O)CC(C)(C)[C@@]12C=CC(=O)CC2` yielded an Activity of less than 100 µM. The same measure, in the same setting: to `C=C1CC[C@@H](Br)C(C)(C)[C@]12CC[C@](C)(Br)[C@@H](Cl)C2` belongs less than 100 µM; to `C=C1C[C@H](O)[C@@H](Br)C(C)(C)[C@@]12C=C[C@](C)(O)CC2` [ISORIGIDOL], less than 100 µM.

Staying with this assay, now noted: Nippostrongylus brasiliensis.
`CCCSc1ccc2[nH]c(NC(=O)OC)nc2c1` [ALBENDAZOLE]: the EC50 was 340 nM.

As for `COC(=O)Nc1nc2cc(Sc3ccccc3)ccc2[nH]1` [FENBENDAZOLE], a half-maximal effect (EC50) was put at 120 nM. The same measure, in the same setting: to `c1ccc([C@H]2CN3CCSC3=N2)cc1` [LEVAMISOLE] belongs 210 nM.

These data come from ChEMBL document CHEMBL1156392, “New sesquiterpene derivatives from the red alga Laurencia scoparia. Isolation, structure determination, and anthelmintic activity” (J Nat Prod, 2001).
